Reference: EP0079489A1, “Methotrexate-labeled iodothyronine conjugates and method, reagent means and test device for the determination of iodothyronine in or iodothyronine uptake of a liquid sample” (MILES LABORATORIES, INC., priority 1981, dated 1983)

How the values were obtained:
[1] = target: T1, bovine liver dihydrofolate reductase (Bos taurus, UniProt P00376); experiment: Inhibition of dihydrofolate reductase by the labeled conjugate (Example 1C); assay type: biochemical; settings: for ΔA340/20 Min: 37°C, without conjugate 0.645
T1 construct: bovine liver dihydrofolate reductase (Sigma Chemical Co., St. Louis, MO); purchased Sigma Chemical Co., St. Louis, MO; host or cells: bovine liver
T1 sequence (P00376 1-187): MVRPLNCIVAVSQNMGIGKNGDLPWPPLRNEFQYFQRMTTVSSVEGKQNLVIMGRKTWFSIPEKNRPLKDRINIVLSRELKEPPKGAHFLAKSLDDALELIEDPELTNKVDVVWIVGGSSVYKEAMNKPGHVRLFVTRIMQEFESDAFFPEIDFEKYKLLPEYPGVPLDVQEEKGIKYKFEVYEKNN
Protocol: (§1) The standard assay consisted of 0.10 mM dihydrofolate (DHF), 0.10 mM NADPH, 0.001 unit/bovine liver dihydrofolate reductase (Sigma Chemical Co., St. Louis, MO) and 0.1 M sodium phosphate (pH 6.0) in a final volume of 2.0 ml. The reaction mixture without dihydrofolate was incubated at 37°C for 5 minutes, then the reaction was initiated by adding dihydrofolate, and an initial absorbance at 340 nm was recorded with a Gilford 250 spectrophotometer (Gilford Instrument Laboratories, Oberlin, OH). The reaction was allowed to proceed for 20 minutes at 37°C and then a final reading was recorded. The enzyme activity was expressed as the change in absorbance (AA) at 340 nanometers (nm) that occurred during the 20 minute (min) reaction.
Various concentrations of methotrexate-aminobutylthroxine conjugate were incubated with the standard concentrations of NADPH, dihydrofolate reductase and buffer for 5 minutes at 37°C. The reaction was initiated as discussed above with the addition of dihydrofolate.

Antibody to Thyroxine [2] = experiment: Competitive binding assay for thyroxine, dihydrofolate reductase activity read-out (Example 1E); settings: 100 µl of 0.16 µM conjugate
Protocol: as §1
The standard concentrations of NADPH, buffer, antibody to thyroxine and various concentrations of thyroxine were incubated at room remperature for a minimum of 30 seconds. Then 100 µl of […] methotrexate-aminobutylthyroxine was added and the mixture was incubated at room temperature for 2 minutes. Following the second incubation, dihydrofolate reductase was added and the mixture was incubated an additional 5 minutes at 37°C. The reaction was initiated and monitored in the usual manner.

Antibody to Thyroxine [3] = experiment: Titration of antibody to thyroxine with the labeled conjugate, dihydrofolate reductase activity read-out (Example 1D); assay type: binding; settings: 75 µl of 0.16 µM conjugate (6 nM)
Protocol: as §1
Various concentrations of antibody to thyroxine and the standard concentrations of NADPH, 6 nM methotrexate-aminobutylthyroxine and buffers were incubated for 2 minutes at room temperature. Dihydrofolate reductase was then added, and the incubation was continued for 5 minutes at 37°C. The enzyme catalyzed reaction was initiated by addition of dihydrofolate and monitored as described above.

[4] = test system: Rabbit antibody to thyroxine; experiment: Titration of antibody to thyroxine with the labeled conjugate, thiazoyl blue colorimetric read-out (Example 2B); assay type: binding; settings: 40 µl Reagent 5 (conjugate), 10 minutes
Protocol: Thyroxine-free serum was prepared by treatment of pooled human serum with charcoal [Larsen et al, J. Clin. Endocrinol. Metab. 37:177(1973)]. All reagents except thyroxine-free serum or as otherwise indicated below were prepared in 0.1 M sodium phosphate buffer, pH 6.5, containing 0.3 M potassium chloride and 0.005% sodium azide. • Reagent 1 - Mixture of 6.5 ml of 10 mM 8-anilinonaphthalene sulfonic acid and 10 ml of thyroxine-free serum. • Reagent 2 - Mixture of 1.0 ml of bovine liver dihydrofolate reductase (0.152 units/ml) and 1.0 ml of 11 mM thiazoyl blue. • Reagent 3 - 0.114 mM dihydrofolate in 0.085 M sodium phosphate buffer, pH 6.2, 0.255 mM potassium chloride, and 0.043% sodium azide. • Reagent 4 - Rabbit antibody to thyroxine diluted 10-fold in buffer. • Reagent 5 - […] methotrexate-thyroxine conjugate (Part A above) in 10 mM sodium carbonate buffer, pH 9.5. • Reagent 6 - 10 mM NADPH in 10 mM sodium carbonate buffer, pH 9.5.
Various amounts of Reagent 4 (indicated in Table 4 below) were mixed with 40 µl of Reagent 5, 90 µl of Reagent 6, and sufficient buffer to make a final volume of 625 pl. Then 175 µl of Reagent 1 was added to each followed by 250 µl of buffer and the incubation was continued. After 10 minutes from the addition of Reagent 3, the absorbance at 560 nm was recorded for each reaction mixture and shown in Table 4.

In the case of `CN(Cc1cnc2nc(N)nc(N)c2n1)c1ccc(C(=O)NC(CCC(=O)NCCCCNC(Cc2cc(I)c(Oc3cc(I)c(O)c(I)c3)c(I)c2)C(=O)O)C(=O)O)cc1` (stereo not shown) [Methotrexate-Aminobutyl-Thyroxine, Methotrexate-aminobutylthyroxine Conjugate], the “ΔA340/20 Min” value ([1]; 25 μl of 0.16 μM conjugate in 2.0 ml final volume) is reported as 0.566, the “ΔA340/20 Min” value ([1]; 50 μl of 0.16 μM conjugate in 2.0 ml final volume) is reported as 0.495 and the “ΔA340/20 Min” value ([1]; 100 μl of 0.16 μM conjugate in 2.0 ml final volume) is reported as 0.433. For the same compound, the “ΔA340/20 Min” value ([1]; 200 μl of 0.16 μM conjugate in 2.0 ml final volume) was 0.306, the “inhibition of dihydrofolate reductase (verdict in words)” value ([1]; various concentrations of conjugate, Table 1) was “effective inhibitor” and the “ΔA340/20 Min” value (Antibody to Thyroxine [2]; 30 µl antibody to thyroxine 1:4 dil, no thyroxine) was 0.645. The “ΔA340/20 Min” value (Antibody to Thyroxine [2]; no antibody, without conjugate 0.620) was 0.458, the “ΔA340/20 Min” value (Antibody to Thyroxine [3]; 10 µl antibody to thyroxine 1:9 dilution) was 0.579 and the “ΔA340/20 Min” value (Antibody to Thyroxine [3]; 20 µl antibody to thyroxine 1:9 dilution) was 0.602. The “ΔA340/20 Min” value (Antibody to Thyroxine [3]; 40 µl antibody to thyroxine 1:9 dilution) was 0.664, the “ΔA340/20 Min” value (Antibody to Thyroxine [3]; 80 µl antibody to thyroxine 1:9 dilution) was 0.656 and the “ΔA340/20 Min” value (Antibody to Thyroxine [3]; 160 µl antibody to thyroxine 1:9 dilution) was 0.667. The “ΔA340/20 Min” value (Antibody to Thyroxine [3]; no antibody, without conjugate and antibody 0.691) was 0.499.
In the case of `CN(Cc1cnc2nc(N)nc(N)c2n1)c1ccc(C(=O)NC(CCC(=O)NC(Cc2cc(I)c(Oc3cc(I)c(O)c(I)c3)c(I)c2)C(=O)O)C(=O)O)cc1` (stereo not shown) [methotrexate-thyroxine conjugate, Methotrexate-thyroxine Conjugate], the “Average Absorbance (560 nm)” value ([4]; 20 µl Reagent 4 (rabbit antibody diluted 10-fold)) is reported as 0.538, the “Average Absorbance (560 nm)” value ([4]; 40 µl Reagent 4 (rabbit antibody diluted 10-fold)) is reported as 0.581 and the “Average Absorbance (560 nm)” value ([4]; 80 µl Reagent 4 (rabbit antibody diluted 10-fold)) is reported as 0.632. For the same compound, the “Average Absorbance (560 nm)” value ([4]; 160 µl Reagent 4 (rabbit antibody diluted 10-fold)) was 0.689, the “Average Absorbance (560 nm)” value ([4]; 320 µl Reagent 4 (rabbit antibody diluted 10-fold)) was 0.737 and the “Average Absorbance (560 nm)” value ([4]; no antibody solution, thyroxine-free serum present) was 0.478.
